27 compounds from PMC5509550, “Development of a Novel Lead that Targets M. tuberculosis Polyketide Synthase 13” (Cell, 2017) can be followed below.

One data set concerns the target T1, Mtb Pks13-TE domain (Mycobacterium tuberculosis, UniProt I6X8D2).
T1 construct: The 283 residue long TE domain starting from residue 1451 in full length Pks13; His6 (TEV-cleavable) (N, cleaved yes); made in house; host or cells: E. coli BL21(DE3)pLysS
T1 sequence (I6X8D2 1451-1733 limits assumed): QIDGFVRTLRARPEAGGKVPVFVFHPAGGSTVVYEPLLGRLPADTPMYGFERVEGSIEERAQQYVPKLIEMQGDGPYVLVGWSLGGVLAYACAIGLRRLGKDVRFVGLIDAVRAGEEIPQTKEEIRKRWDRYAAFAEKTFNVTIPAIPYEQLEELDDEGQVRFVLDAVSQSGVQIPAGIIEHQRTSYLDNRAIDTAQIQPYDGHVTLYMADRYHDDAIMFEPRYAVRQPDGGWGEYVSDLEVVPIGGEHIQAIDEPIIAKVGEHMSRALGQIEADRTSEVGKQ
The data set can be described thus: biochemical. Particulars: mean ± SD of three independent measurements.

Data set [1] concerns Mtb mc^27000. The data set can be described thus: microbe, parasite or virus in culture. It counts as cell-based, Mycobacterium tuberculosis. As to conditions: for MIC: Mtb mc^27000, liquid medium, 96-well plates.
Data set [2] is described as follows: Microsomal stability assay, mouse liver microsomes. Particulars: metabolite identification.
A further data set deals with M. tuberculosis H37Rv. The arrangement: species or system Mycobacterium tuberculosis. As to conditions: in vivo.
For another data set, the system named is M. tuberculosis Erdman. The arrangement: species or system Mycobacterium tuberculosis. As to conditions: in vivo.
The next data set addresses T2, CYP1A2 (Homo sapiens, UniProt P05177).
T2 sequence (P05177 1-516): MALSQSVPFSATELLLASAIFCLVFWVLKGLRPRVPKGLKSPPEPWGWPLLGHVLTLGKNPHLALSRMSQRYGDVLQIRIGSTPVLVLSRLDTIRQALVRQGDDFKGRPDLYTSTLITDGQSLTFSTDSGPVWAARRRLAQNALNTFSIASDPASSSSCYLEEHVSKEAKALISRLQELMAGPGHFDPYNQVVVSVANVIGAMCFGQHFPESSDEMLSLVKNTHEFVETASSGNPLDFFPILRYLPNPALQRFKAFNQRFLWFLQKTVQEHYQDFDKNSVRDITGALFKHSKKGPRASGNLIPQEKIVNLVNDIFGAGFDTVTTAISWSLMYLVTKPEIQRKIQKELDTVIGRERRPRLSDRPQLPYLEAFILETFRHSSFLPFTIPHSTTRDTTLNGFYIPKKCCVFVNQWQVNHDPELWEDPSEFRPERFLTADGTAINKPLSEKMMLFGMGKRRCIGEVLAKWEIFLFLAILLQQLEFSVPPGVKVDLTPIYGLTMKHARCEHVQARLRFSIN
The data set can be described thus: biochemical.

A further data set has as its target CYP2C9 (Homo sapiens, UniProt P11712). The data set can be described thus: biochemical.
Another data set addresses CYP2D6 (Homo sapiens, UniProt P10635). The experiment in a line: biochemical.
In data set [3] the test system is Mtb mc^27000. The data set can be described thus: microbe, parasite or virus in culture. As to conditions: for MIC: Mycobacterium tuberculosis, single drug in the synergy study, read-out: MIC of the drug alone. It counts as cell-based, Mycobacterium tuberculosis.

≈ marks a conversion by molar mass, not a printed value. Read-outs that look alike come from different tables or passages of the source.

Chain of CYP2C9 (P11712 whole entry): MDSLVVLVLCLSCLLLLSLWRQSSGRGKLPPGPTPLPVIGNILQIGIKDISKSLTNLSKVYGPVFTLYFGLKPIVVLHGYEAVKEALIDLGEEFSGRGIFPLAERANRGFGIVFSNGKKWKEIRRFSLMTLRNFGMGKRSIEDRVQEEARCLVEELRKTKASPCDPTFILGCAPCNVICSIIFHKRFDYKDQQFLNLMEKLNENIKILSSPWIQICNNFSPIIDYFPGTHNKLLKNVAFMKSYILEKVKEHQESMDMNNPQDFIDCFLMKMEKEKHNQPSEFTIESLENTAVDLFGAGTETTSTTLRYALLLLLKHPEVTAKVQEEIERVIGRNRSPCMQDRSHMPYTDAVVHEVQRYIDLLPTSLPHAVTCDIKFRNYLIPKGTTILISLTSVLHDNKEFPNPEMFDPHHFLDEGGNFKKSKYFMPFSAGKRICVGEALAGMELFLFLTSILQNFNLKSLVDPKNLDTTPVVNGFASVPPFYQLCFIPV
Chain of CYP2D6 (P10635 whole entry): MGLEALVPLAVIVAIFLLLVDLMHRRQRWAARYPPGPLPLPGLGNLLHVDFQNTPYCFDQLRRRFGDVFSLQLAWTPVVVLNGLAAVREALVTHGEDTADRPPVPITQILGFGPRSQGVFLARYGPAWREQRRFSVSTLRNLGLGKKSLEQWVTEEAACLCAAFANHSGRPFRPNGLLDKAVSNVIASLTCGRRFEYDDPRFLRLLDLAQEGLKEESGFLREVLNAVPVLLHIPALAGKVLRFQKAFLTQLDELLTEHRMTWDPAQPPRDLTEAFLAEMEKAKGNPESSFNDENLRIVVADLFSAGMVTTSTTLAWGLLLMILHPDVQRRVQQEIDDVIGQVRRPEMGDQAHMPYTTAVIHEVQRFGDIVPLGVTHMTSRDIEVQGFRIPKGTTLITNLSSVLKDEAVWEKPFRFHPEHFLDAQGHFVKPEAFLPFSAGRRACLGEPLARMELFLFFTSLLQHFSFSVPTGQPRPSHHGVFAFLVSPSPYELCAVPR

The term IC50 denotes the concentration that gives 50% inhibition. On to `CCOC(=O)c1c(-c2ccccc2)oc2cc(O)cc(CN3CCCCC3)c12` [TAM20, Ethyl 6-hydroxy-2-phenyl-4-(piperidin-1-ylmethyl)benzofuran-3-carboxylate], for which the half-inhibitory concentration (IC50) against Mtb Pks13-TE domain stood at 450 ± 40 nM. The compound also had an MIC against Mtb mc^27000 [1] (Mycobacterium tuberculosis) of 1.1 µM (≈ 0.417 µg/mL).

As for `CCOC(=O)c1c(-c2ccccc2)oc2ccc(O)c(CN3CCCCCC3)c12.Cl` [TAM4, ethyl 4-(1-azepanylmethyl)-5-hydroxy-2-phenyl-1-benzofuran-3-carboxylate hydrochloride], at Mtb Pks13-TE domain, the IC50 is 280 ± 30 nM. The compound also gave an MIC against Mtb mc^27000 [1] of 4.6 µM.

For `CNC(=O)c1c(-c2ccccc2)oc2ccc(O)c(CN3CCCCC3)c12` [TAM12, 5-hydroxy-N-methyl-2-phenyl-4-(piperidin-1-ylmethyl)benzofuran-3-carboxamide], the “Mouse Cli. (intrinsic clearance in mouse liver microsomes)” value stood at 50 mL/min/g. Further, the “better whole-cell activity than ethyl ester analog TAM9” value in the data set with Mtb mc^27000 [1] turned out to be 2 fold. In the data set on Mtb mc^27000 [1] (Mycobacterium tuberculosis), this compound had an MIC of 0.2 µM (≈ 0.0729 µg/mL).

`O=C(O)c1c(-c2ccccc2)oc2ccc(O)c(CN3CCCCC3)c12` [TAM10, 5-hydroxy-2-phenyl-4-(piperidin-1-ylmethyl)benzofuran-3-carboxylic acid]: at Mtb Pks13-TE domain, the IC50 worked out at 6600 ± 700 nM.

For `CCOC(=O)c1c(-c2ccccc2)oc2ccc(O)c(CN3CCC(C)CC3)c12` [TAM1, ethyl 5-hydroxy-4-[(4-methyl-1-piperidinyl)methyl]-2-phenyl-1-benzofuran-3-carboxylate], the MIC against Mtb mc^27000 [1] (Mycobacterium tuberculosis) stood at 2.3 µM (≈ 0.905 µg/mL). In the data set “Stability in mouse serum”, the “stability in mouse serum” value is “cleaved to the inactive acid”. Besides, the “metabolism in mouse liver microsomes” value in data set [2] was “hydroxylated”.

For `CCOC(=O)c1c(-c2ccccc2)oc2ccc(O)c(CN3CCCC3)c12.Cl` [TAM3, ethyl 5-hydroxy-2-phenyl-4-(1-pyrrolidinylmethyl)-1-benzofuran-3-carboxylate hydrochloride], the 50% inhibitory concentration (IC50) at Mtb Pks13-TE domain was 240 ± 20 nM. This compound came in with an MIC against Mtb mc^27000 [1] of 4.1 µM.

`CCOC(=O)c1c(-c2ccc(O)cc2)oc2ccc(O)c(CN3CCCC(CO)C3)c12` (stereo not shown) [TAM23, Ethyl 5-hydroxy-4-((3-(hydroxymethyl)piperidin-1-yl)methyl)-2-(4-hydroxyphenyl)benzofuran-3-carboxylate] showed an IC50 at Mtb Pks13-TE domain of 380 ± 10 nM. The same compound yielded an MIC against Mtb mc^27000 [1] (Mycobacterium tuberculosis) of 2.5 µM (≈ 1.06 µg/mL).

Consider `CCOC(=O)c1c(-c2ccccc2)oc2ccc(O)c(CN3CCCC(C)C3)c12` (stereo not shown) [TAM2, ethyl 5-hydroxy-4-[(3-methyl-1-piperidinyl)methyl]-2-phenyl-1-benzofuran-3-carboxylate], for which, at Mtb Pks13-TE domain, half-maximal inhibition (IC50) required 120 ± 20 nM. Moreover, the MIC against Mtb mc^27000 [1] (Mycobacterium tuberculosis) is 4.4 µM (≈ 1.73 µg/mL).

In turn, `CCOC(=O)c1c(-c2ccccc2)oc2ccc(O)c(CN(C)C)c12` [TAM6, ethyl 4-[(dimethylamino)methyl]-5-hydroxy-2-phenyl-1-benzofuran-3-carboxylate] showed an IC50 against Mtb Pks13-TE domain of 1570 ± 150 nM. This compound also had an MIC in the data set with Mtb mc^27000 [1] (Mycobacterium tuberculosis) of 7.3 µM (≈ 2.48 µg/mL).

`CCOC(=O)c1c(-c2ccccc2)oc2ccc(O)c(CC3CCCCC3)c12` [TAM11, Ethyl 4-(cyclohexylmethyl)-5-hydroxy-2-phenylbenzofuran-3-carboxylate] showed an IC50 against Mtb Pks13-TE domain of 19600 ± 1400 nM. Moreover, the MIC in the data set on Mtb mc^27000 [1] (Mycobacterium tuberculosis) was found to be 5.2 µM (≈ 1.97 µg/mL).

For `CCOC(=O)c1c(-c2ccccc2)oc2ccc(O)c(Cc3ccccc3)c12` [TAM8, Ethyl 4-benzyl-5-hydroxy-2-phenylbenzofuran-3-carboxylate], it took 11900 ± 2300 nM to reach half-maximal inhibition on Mtb Pks13-TE domain (IC50). The MIC in the data set on Mtb mc^27000 [1] (Mycobacterium tuberculosis) is > 40 µM.

Take `NNC(=O)c1ccncc1` [INH, Isoniazid]: in the data set with M. tuberculosis H37Rv, the “lung CFU after 2 weeks of treatment” value is given as ~6.7 log10. For the same compound, in the data set on M. tuberculosis Erdman, the “reduction in lung CFU counts compared with untreated control” value is on record as ~1.1 log10 and the “reduction in spleen bacterial burden relative to untreated control” value is ~2.5 log10 CFU.

Regarding `Clc1ccc(COC(Cn2ccnc2)c2ccc(Cl)cc2Cl)c(Cl)c1` (stereo not shown) [Miconazole], the IC50 against CYP1A2 was 1100 nM; against CYP2C9, > 10000 nM; against CYP2D6 it was 200 nM.

In turn, `CCOC(=O)c1c(-c2ccccc2)oc2ccc(O)c(CN3CCCC(CO)C3)c12` (stereo not shown) [TAM21, Ethyl 5-hydroxy-4-((3-(hydroxymethyl)piperidin-1-yl)methyl)-2-phenylbenzofuran-3-carboxylate] showed an IC50 on Mtb Pks13-TE domain of 420 ± 40 nM. Further, the MIC in the data set with Mtb mc^27000 [1] (Mycobacterium tuberculosis) is 10 µM (≈ 4.09 µg/mL).

Turning to `CNC(=O)c1c(-c2ccccc2)oc2ccc(O)c(CN3CCCC(CO)C3)c12` (stereo not shown) [TAM24, 5-Hydroxy-4-((3-(hydroxymethyl)piperidin-1-yl)methyl)-N-methyl-2-phenylbenzofuran-3-carboxamide], the concentration for half-maximal inhibition (IC50) against Mtb Pks13-TE domain is 2100 ± 300 nM. Besides, the MIC against Mtb mc^27000 [1] (Mycobacterium tuberculosis) came out at 0.5 µM (≈ 0.197 µg/mL).

As to `COc1nc2ccc(Br)cc2cc1[C@@H](c1ccccc1)[C@@](O)(CCN(C)C)c1cccc2ccccc12` [TMC207, Bedaquiline], in the data set on Mtb mc^27000 [3], the “MIC of TMC207 in combination” value came out at 0.005 µM, the “improvement of MIC of TMC207 in combination” value worked out at 2.6 fold and the MIC came to 0.013 µM.

Take `CCOC(=O)c1c(-c2ccccc2)oc2ccc(OC)c(CN3CCCCC3)c12` [TAM14, Ethyl 5-methoxy-2-phenyl-4-(piperidin-1-ylmethyl)benzofuran-3-carboxylate]: on Mtb Pks13-TE domain, the IC50 amounted to 35800 ± 2200 nM.

The compound `CCOC(=O)c1c(-c2ccc(O)cc2)oc2ccc(O)c(CN3CCCCC3)c12` [TAM13, Ethyl 5-hydroxy-2-(4-hydroxyphenyl)-4-(piperidin-1-ylmethyl)benzofuran-3-carboxylate] had an IC50 on Mtb Pks13-TE domain of 170 ± 20 nM.

Regarding `CCOC(=O)c1c(-c2ccc(O)nc2)oc2ccc(O)c(CN3CCCCC3)c12` [TAM17, Ethyl 5-hydroxy-2-(6-hydroxypyridin-3-yl)-4-(piperidin-1-ylmethyl)benzofuran-3-carboxylate], the IC50 against Mtb Pks13-TE domain is 360 ± 40 nM. Moreover, the MIC against Mtb mc^27000 [1] (Mycobacterium tuberculosis) came to 4 µM (≈ 1.59 µg/mL).

As for `CCOC(=O)c1c(-c2ccccc2)oc2ccc(O)c(CN3CCCCC3CO)c12` (stereo not shown) [TAM22, Ethyl 5-hydroxy-4-((2-(hydroxymethyl)piperidin-1-yl)methyl)-2-phenylbenzofuran-3-carboxylate], the IC50 on Mtb Pks13-TE domain was > 10000 nM. In addition, in the data set on Mtb mc^27000 [1] (Mycobacterium tuberculosis), the MIC is > 10 µM.

At Mtb Pks13-TE domain, `CCOC(=O)c1c(-c2ccccc2)oc2cccc(CN3CCCCC3)c12` [TAM15, Ethyl 2-phenyl-4-(piperidin-1-ylmethyl)benzofuran-3-carboxylate] came in with an IC50 of 2000 ± 100 nM. The MIC against Mtb mc^27000 [1] (Mycobacterium tuberculosis) amounted to 16 µM (≈ 5.82 µg/mL).

Take `[H]/N=C(/N)N[C@H]1[C@H](O)[C@@H](O)[C@H](O[C@@H]2O[C@@H](C)[C@](O)(C=O)[C@H]2O[C@@H]2O[C@@H](CO)[C@H](O)[C@@H](O)[C@@H]2NC)[C@@H](N/C(N)=N\[H])[C@@H]1O` [SM, Streptomycin]: in the data set on Mtb mc^27000 [3], the “MIC of SM in combination” value stood at 0.037 µM, the “improvement of MIC of SM in combination” value is given as ~2 fold and the MIC was 0.07 µM.

Take `CNC(=O)c1c(-c2ccc(O)cc2)oc2cc(O)cc(CN3CCCCC3)c12` [TAM19, 6-hydroxy-2-(4-hydroxyphenyl)-N-methyl-4-(piperidin-1-ylmethyl)benzofuran-3-carboxamide]: 570 ± 30 nM corresponded to half-maximal inhibition against Mtb Pks13-TE domain (IC50). The MIC in the data set on Mtb mc^27000 [1] (Mycobacterium tuberculosis) amounted to 1 µM (≈ 0.38 µg/mL).

At Mtb Pks13-TE domain, `CCOC(=O)c1c(-c2ccccc2)oc2ccc(O)cc12` [TAM7, Ethyl 5-hydroxy-2-phenylbenzofuran-3-carboxylate] showed an IC50 of 20000 ± 1900 nM. In the data set on Mtb mc^27000 [1] (Mycobacterium tuberculosis), this compound yielded an MIC of 20 µM (≈ 5.65 µg/mL).

For `CCOC(=O)c1c(-c2ccccc2)oc2ccc(O)c(CN3CCOCC3)c12` [TAM5, ethyl 5-hydroxy-4-(4-morpholinylmethyl)-2-phenyl-1-benzofuran-3-carboxylate], at Mtb Pks13-TE domain, half-maximal inhibition (IC50) required 710 ± 50 nM. The compound also returned an MIC in the data set on Mtb mc^27000 [1] (Mycobacterium tuberculosis) of 13.3 µM (≈ 5.07 µg/mL).

Take `CNC(=O)c1c(-c2ccc(O)c(F)c2)oc2ccc(O)c(CN3CCCCC3)c12` [TAM18, 2-(3-fluoro-4-hydroxyphenyl)-5-hydroxy-N-methyl-4-(piperidin-1-ylmethyl)benzofuran-3-carboxamide]: the IC50 against Mtb Pks13-TE domain is 330 ± 30 nM. For the same compound, the MIC in the data set on Mtb mc^27000 [1] (Mycobacterium tuberculosis) came out at 0.5 µM (≈ 0.199 µg/mL).

In the case of `CCOC(=O)c1c(-c2ccccc2)oc2ccc(O)c(CN3CCCCC3)c12` [TAM9, Ethyl 5-hydroxy-2-phenyl-4-(piperidin-1-ylmethyl)benzofuran-3-carboxylate], the “Mouse Cli. (intrinsic clearance in mouse liver microsomes)” value stood at 26.9 mL/min/g. Half-maximal inhibition at Mtb Pks13-TE domain (IC50) was put at 260 ± 40 nM. In the data set on Mtb mc^27000 [1] (Mycobacterium tuberculosis), this compound registered an MIC of 0.4 µM (≈ 0.152 µg/mL).
